Assay results: patent US7547729B2, “1,3-diphenylprop-2-en-1-one derivative compounds, preparation method thereof and uses of same” (Genfit, priority 2004, dated 2009)

How the values were obtained:
[1] = tested on: Apo E2/E2 transgenic mice; experiment: Effects on triglyceride and cholesterol metabolism in Apo E2/E2 transgenic mice; assay type: in vivo; conditions: gavage, 50 mg/kg/day, seven days
Protocol: FIGS. 19a, 19b, 19c, 19d, 20a, 20b, 20c and 20d illustrate the effects of treatment with compound 2 (Cpd2), compound 13 (Cpd13), compound 33 (Cpd33) and compound 39 (Cpd39) on triglyceride and cholesterol metabolism in Apo E2/E2 transgenic mice treated by gavage with the compound at a dose of 50 mg/kg/day, for seven days.
Apo E2/E2 transgenic mice were housed in a 12-hour light/dark cycle at a constant temperature of 20±3° C. After a 1-week acclimatization period, the mice were weighed and divided into groups of 6 animals selected such that the distribution of body weight was uniform. The test compounds were suspended in carboxymethylcellulose and administered by gastric lavage at the indicated doses, once a day for 7 days. Animals had access to food and water ad libitum. At the end of the experiments, animals were weighed and sacrificed under anesthesia. Blood was collected on EDTA. Plasma was isolated by centrifugation at 3000 rpm for 20 minutes. Liver samples were removed and stored frozen in liquid nitrogen for later analysis.
Lipid concentrations in plasma (total cholesterol and free cholesterol, triglycerides and phospholipids) were determined by a colorimetric assay (Boehringer, Mannheim, Germany) according to the supplier's instructions. Plasma concentrations of apolipoproteins AI, AII and CIII were determined as previously described (Raspe et al. 1999, Asset G et al., Lipids, 1999).

PPARγ [2] = biological target: T1, PPARγ (Homo sapiens, UniProt P37231); experiment: PPARγ/Gal4 transactivation system in RK13 cells; assay type: cell-based; conditions: 24 hours
T1 construct: expressed in transfected cells; host or cells: COS-7 cells
T1 sequence (P37231 238-503 limits assumed): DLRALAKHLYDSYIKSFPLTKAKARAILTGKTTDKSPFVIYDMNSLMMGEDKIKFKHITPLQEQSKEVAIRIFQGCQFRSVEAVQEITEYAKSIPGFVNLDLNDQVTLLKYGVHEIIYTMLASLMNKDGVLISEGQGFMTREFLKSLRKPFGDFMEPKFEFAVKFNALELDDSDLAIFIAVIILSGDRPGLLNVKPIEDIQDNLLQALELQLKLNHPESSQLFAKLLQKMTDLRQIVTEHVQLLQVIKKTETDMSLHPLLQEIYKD
Protocol: (§1) RK13 cells were incubated with the compound 2 at concentrations comprised between 0.01 and 10 μM for 24 hours. The results are expressed as the induction factor (ratio of luminescent signal obtained with the compound and that observed without the compound) after the different treatments.
(§2) PPAR activation was tested in vitro in RK13 epitheloid or COS-7 cell lines by measuring the transcriptional activity of chimeras composed of the DNA binding domain of the yeast gal4 transcription factor and the ligand binding domain of the different PPARs. These latter results were then confirmed in cell lines according to the following protocols:
(§3) RK13 cells were from ECACC (Porton Down, UK), COS-7 cells were from the ATCC (American Type Culture Collection) and were grown in DMEM medium supplemented with 10% (VN) fetal calf serum, 100 U/ml penicillin (Gibco, Paisley, UK) and 2 mM L-glutamine (Gibco, Paisley, UK). The culture medium was changed every two days. Cells were kept at 37° C. in a humidified 95% air/5% CO2 atmosphere.
(§4) The plasmids pG5TkpGL3, pRL-CMV, pGal4-hPPARα, pGal4-hPPARγ, pGal4-hPPARδ and pGal4-φ have been described by Raspe, Madsen et al. (1999). The pGal4-mPPARα, pGal4-hPPARγ and pGal4-hPPARδ constructs were obtained by cloning into the pGal4-φ vector of PCR-amplified DNA fragments corresponding to the DEF domains of the human PPARα, PPARγ and PPARδ nuclear receptors.
(§5) RK13 cells were seeded in 24-well culture dishes at 5×10^4 cells/well, COS-7 cells in 96-well culture dishes at 5×10^4 cells/well and transfected for 2 hours with the reporter plasmid pG5TkpGL3 (50 ng/well), the expression vectors pGal4-φ, pGal4-mPPARα, pGal4-hPPARα, pGal4-hPPARγ, pGal4-hPPARδ (100 ng/well) and the transfection efficiency control vector pRL-CMV (1 ng/well) according to the previously described protocol (Raspe, Madsen et al. 1999), then incubated for 36 hours with the test compounds. At the end of the experiment, the cells were lysed (Gibco, Paisley, UK) and luciferase activity was determined with a Dual-Luciferase™ Reporter Assay System kit (Promega, Madison, Wis., USA) for RK13 cells and Steady Glow Luciferase (Promega) for COS-7 cells according to the supplier's instructions as previously described. The protein content of the cell extracts was then measured with the Bio-Rad Protein Assay (Bio-Rad, Munich, Germany) as directed by the supplier.

PPARα [3] = biological target: T2, PPARα (Homo sapiens, UniProt Q07869); experiment: PPARα/Gal4 transactivation system in RK13 cells; assay type: cell-based; conditions: 24 hours
T2 construct: expressed in transfected cells; host or cells: COS-7 cells
T2 sequence (Q07869 239-466 limits assumed): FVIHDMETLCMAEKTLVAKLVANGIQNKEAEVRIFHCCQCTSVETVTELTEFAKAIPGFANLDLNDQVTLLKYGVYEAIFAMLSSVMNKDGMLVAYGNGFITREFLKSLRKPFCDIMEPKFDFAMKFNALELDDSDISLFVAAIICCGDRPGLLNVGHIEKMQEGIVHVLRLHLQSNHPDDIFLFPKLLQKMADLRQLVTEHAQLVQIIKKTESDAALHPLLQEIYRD
Protocol: as §1
as §2, with “protocols: […]” for “protocols:”
as §5, with “At the end of the experiment, the cells were lysed (Gibco, Paisley, UK) and luciferase activity was determined with a Dual-Luciferase™ Reporter Assay System kit (Promega, Madison, Wis., USA) for RK13 cells and Steady Glow Luciferase (Promega) for COS-7 cells according to the supplier's instructions as previously described.” left out

LDL = experiment: Protection against LDL oxidation by copper (conjugated diene formation); assay type: biochemical; conditions: 10^−4M
Protocol: Unless otherwise indicated, the reagents were from Sigma (St Quentin, France). LDL were prepared according to the method described by Lebeau et al. (Lebeau, Furman et al. 2000).
The solutions of test compounds were prepared at 10^−2 M concentration in bicarbonate buffer (pH 9) and diluted in PBS to obtain final concentrations ranging from 0.1 to 100 μM
Prior to oxidation, EDTA was removed from the LDL preparation by dialysis. Oxidation then took place at 30° C. by adding 100 μl of 16.6 μM CuSO4 solution to 160 μL of LDL (125 μg protein/ml) and 20 μl of a test compound solution. The formation of dienes, the species under observation, was followed by measuring optical density at 232 nm in the samples treated with the compounds in the presence or absence of copper. Optical density at 232 nm was measured every 10 minutes for 8 hours in a thermostated spectrophotometer (Tecan Ultra 380). The analyses were performed in triplicate. The compounds were considered to have antioxidant activity when they induced a longer lag phase and reduced the rate of oxidation and the amount of dienes formed in comparison with the control sample.

PPARγ [4] = biological target: T1, PPARγ; experiment: PPARγ/Gal4 transactivation system in COS-7 cells; assay type: cell-based; conditions: 24 hours
Protocol: (§6) COS-7 cells were incubated with different concentrations of the inventive compounds for 24 hours. The results are expressed as the induction factor (ratio of luminescent signal obtained with the compound and that observed without the compound) after the different treatments.
as §2, §3, §4, §5

PPARδ = biological target: T3, PPARδ (Homo sapiens, UniProt Q03181); experiment: PPARδ/Gal4 transactivation system in COS-7 cells; assay type: cell-based; conditions: 24 hours
T3 construct: expressed in transfected cells; host or cells: COS-7 cells
T3 sequence (Q03181 211-439 limits assumed): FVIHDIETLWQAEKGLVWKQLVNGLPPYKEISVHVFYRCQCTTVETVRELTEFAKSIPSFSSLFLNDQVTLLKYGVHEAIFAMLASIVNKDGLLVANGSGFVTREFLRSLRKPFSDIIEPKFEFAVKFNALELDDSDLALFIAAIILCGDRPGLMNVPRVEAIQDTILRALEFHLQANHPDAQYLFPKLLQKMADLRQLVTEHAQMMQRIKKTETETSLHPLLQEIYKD
Protocol: as §6, §2, §3, §4, §5

naive CD4+ T cells = experiment: Mixed Lymphocyte Reaction (MLR), BrdU incorporation; assay type: cell-based
Protocol: FIG. 23 illustrates a Mixed Lymphocyte Reaction (MLR) carried out in the presence of increasing amounts of dendritic cells treated or not with compound 31 and incubated with naive CD4+ T cells for seven days. T cell proliferation was determined by BrdU (bromodeoxyuridine) incorporation.
For this experiment, increasing amounts of mature dendritic cells (treated or not with the compound) were incubated with a fixed amount of naive CD4+ T cells from another donor. After a 5-day incubation, BrdU (bromodeoxyuridine) was added for 24 hours and the incorporation thereof in T cells was determined by ELISA with anti-BrdU antibodies coupled to chemiluminescent tags.

PPARα [5] = biological target: T2, PPARα; experiment: PPARα/Gal4 transactivation system in COS-7 cells; assay type: cell-based; conditions: 24 hours
Protocol: as §6, §2, §3, §4, §5

## CCCCCSCCOc1ccc(C(=O)/C=C/c2cc(C)c(OC(C)(C)C(=O)O)c(C)c2)cc1 [compound 2, 1-(4-(Pentylthioethyloxy)phenyl)-3-(4-carboxydimethylmethyloxy-3,5-dimethylphenyl)prop-2-en-1-one]
[1]
  plasma cholesterol: decrease
  plasma triglycerides: decrease
PPARγ [2]; 0.01 μM
  Induction factor: 1.31
PPARγ [2]; 0.03 μM
  Induction factor: 1.18
PPARγ [2]; 0.1 μM
  Induction factor: 1.73
PPARγ [2]; 0.3 μM
  Induction factor: 4.58
PPARγ [2]; 1 μM
  Induction factor: 9.50
PPARγ [2]; 3 μM
  Induction factor: 16.64
PPARγ [2]; 10 μM
  Induction factor: 31.00
PPARα [3]; 1 μM
  Induction factor: 8.83
PPARα [3]; 10 μM
  Induction factor: 18.49
LDL; FIG. 1a, copper alone 120 minutes
  lag phase of conjugated diene formation: 314 min
LDL; FIG. 1b, copper alone 1.8
  rate of diene formation: 0.1 nmol/min/mg of LDL
LDL; FIG. 1c, copper alone 372
  maximum amount of conjugated dienes formed: 35 nmol/mg
LDL; FIG. 1c, versus copper alone
  decrease in the amount of conjugated dienes formed: 90%

## Cc1cc(/C=C/C(=O)c2c(C)c(C)c(C)c(C)c2C)cc(C)c1OC(C)(C)C(=O)O [compound 31, 1-(2,3,4,5,6-Pentamethylphenyl)-3-(4-carboxydimethylmethyloxy-3,5-dimethylphenyl)prop-2-en-1-one]
PPARγ [4]; 0.001 μM
  Induction factor: 1.44
PPARγ [4]; 0.003 μM
  Induction factor: 2.19
PPARγ [4]; 0.01 μM
  Induction factor: 3.06
PPARγ [4]; 0.03 μM
  Induction factor: 4.87
PPARγ [4]; 0.1 μM
  Induction factor: 5.99
PPARγ [4]; 0.3 μM
  Induction factor: 6.96
PPARγ [4]; 1 μM
  Induction factor: 7.05
PPARγ [4]; 3 μM
  Induction factor: 7.79
PPARδ; 0.001 μM
  Induction factor: 1.00
PPARδ; 0.003 μM
  Induction factor: 1.05
PPARδ; 0.01 μM
  Induction factor: 1.09
PPARδ; 0.03 μM
  Induction factor: 1.16
PPARδ; 0.1 μM
  Induction factor: 1.35
PPARδ; 0.3 μM
  Induction factor: 2.67
PPARδ; 1 μM
  Induction factor: 4.12
PPARδ; 3 μM
  Induction factor: 10.82
PPARδ; 10 μM
  Induction factor: 11.70
Naive CD4+ T cells
  capacity of treated dendritic cells to induce proliferation of naive CD4+ T cells: lower capacity
PPARα [5]; 0.001 μM
  Induction factor: 1.10
PPARα [5]; 0.003 μM
  Induction factor: 1.09
PPARα [5]; 0.01 μM
  Induction factor: 1.23
PPARα [5]; 0.03 μM
  Induction factor: 1.23
PPARα [5]; 0.1 μM
  Induction factor: 1.23
PPARα [5]; 0.3 μM
  Induction factor: 1.73
PPARα [5]; 1 μM
  Induction factor: 1.88
PPARα [5]; 3 μM
  Induction factor: 3.69
PPARα [5]; 10 μM
  Induction factor: 6.03
LDL; FIG. 5a, no control value printed
  kinetics of LDL oxidation (lag phase): 124.5 min
LDL; FIG. 5b, absence of compounds 2
  LDL oxidation rate: 1.4 nmol/min/mg
LDL; FIG. 5c, absence of compounds 386
  total amount of dienes formed: 352 nmol/mg
